Tests used:
[1] = molecular target: T1, USP7, Active human recombinant protein (Homo sapiens, UniProt Q93009); experiment: USP7 assay (Ubiquitin-Rhodamine 110 enzymatic assay); type: biochemical; conditions: read-out: IC50
T1 construct: purchased CP Lot; 20200225001
Outline: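 Kinetic 20-min fluorescence read (485/535 nm) of ubiquitin-rhodamine 110 (190 nM final) cleavage by 0.05 nM USP7 gave slopes. Compounds, 10 concentrations in 3-fold steps, had 15 min RT preincubation with enzyme first. Inhibition relative to max (enzyme+substrate) and min (substrate only) signals, fitted to IC50.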

[2] = plasma stability (Plasma Assay Protocol); type: in vitro ADME; conditions: 37° C., t1/2 extrapolated if >50% remaining at 60 min, ∞ if near 100% remaining
Procedure: ND refers to not disclosed.
• 1. Preheated 0.05 M sodium phosphate and 0.07 M NaCl buffer, pH 7.4. Dissolved 14.505 g/L Na2HPO4·12H2O, 1.483 g/L NaH2PO4·2H2O and 4.095 g/L NaCl in deionized water. The basic solution was then titrated with the phosphoric acid to pH 7.40. Stored in fridge up to 7 days. Checked pH on the day of experiment and adjust if outside specification of 7.4+/−0.1. • 2. Plasma preparation: • Thawed frozen plasma by placing at 37° C. quickly. Centrifuged plasma at 3,000 rpm for 8 minutes to remove clots, pipetted and pooled the supernatant as the plasma to be used in the experiment. Checked and recorded the pH of the plasma. Only used plasma within the range of pH 7.4 to pH 8. If higher than pH 8, discarded the plasma. By using a 5% CO2 incubator and PBS buffer, a pH of 7.4 was reached after the 4 hour equilibrium dialysis time. Put the plasma on ice until used. • 3. Tested compounds and reference compounds spiking solution: • 0.5 mM test compounds spiking solution A: Added 10 μL of 10 mM test compounds stock solution to 190 μL DMSO. • 0.02 mM spiking solution B: Added 40 μL of spiking solution A to 960 μL of […] Sodium phosphate buffer with 0.5% BSA.
Pre-warmed the plasma and spiking solution B at 37° C. for 5 min. Added 10 μL of pre-warmed spiking solution B into the wells designated for all the time points (5, 15, 30, 45, 60 min).
For 0-min, added 400 μL of acetonitrile (ACN) containing the internal standard (IS) to the wells of 0-min plate and then added 90 μL of plasma. Added 90 μL of pre-warmed plasma into the wells designated for the time points (0, 5, 15, 30, 45, 60 min), and started timing. At 5, 15, 30, 45, 60 min, added 400 μL of ACN containing IS to the wells of corresponding plates, respectively, to stop the reaction. After quenching, shook the plates at the vibrator (IKA, MTS 2/4) for 10 min (600 rpm/min) and then centrifuged at 5594 g for 15 min (Thermo Multifuge×3R). Transferred 50 μL of the supernatant from each well into a 96-well sample plate containing 50 μL of ultra pure water (Millipore ZMQS50F01) for LC/MS analysis.

[3] = mouse liver microsomal stability (Microsome Assay Protocol); type: in vitro ADME; conditions: pH 7.4; mouse liver microsomes, NADPH, 37° C.; read-out: MLM t1/2, min
Outline: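 Compound at 1.5 μM was mixed with 0.75 mg/mL mouse liver microsomes in 0.1 M potassium phosphate, 1.0 mM EDTA, pH 7.4, then started with NADPH from a 6 mM stock after 5 min preincubation at 37 °C. Samples taken at 0, 5, 15, 30 and 45 min were quenched with acetonitrile containing internal standard and analysed by LC/MS.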

T1 sequence (Q93009 whole entry): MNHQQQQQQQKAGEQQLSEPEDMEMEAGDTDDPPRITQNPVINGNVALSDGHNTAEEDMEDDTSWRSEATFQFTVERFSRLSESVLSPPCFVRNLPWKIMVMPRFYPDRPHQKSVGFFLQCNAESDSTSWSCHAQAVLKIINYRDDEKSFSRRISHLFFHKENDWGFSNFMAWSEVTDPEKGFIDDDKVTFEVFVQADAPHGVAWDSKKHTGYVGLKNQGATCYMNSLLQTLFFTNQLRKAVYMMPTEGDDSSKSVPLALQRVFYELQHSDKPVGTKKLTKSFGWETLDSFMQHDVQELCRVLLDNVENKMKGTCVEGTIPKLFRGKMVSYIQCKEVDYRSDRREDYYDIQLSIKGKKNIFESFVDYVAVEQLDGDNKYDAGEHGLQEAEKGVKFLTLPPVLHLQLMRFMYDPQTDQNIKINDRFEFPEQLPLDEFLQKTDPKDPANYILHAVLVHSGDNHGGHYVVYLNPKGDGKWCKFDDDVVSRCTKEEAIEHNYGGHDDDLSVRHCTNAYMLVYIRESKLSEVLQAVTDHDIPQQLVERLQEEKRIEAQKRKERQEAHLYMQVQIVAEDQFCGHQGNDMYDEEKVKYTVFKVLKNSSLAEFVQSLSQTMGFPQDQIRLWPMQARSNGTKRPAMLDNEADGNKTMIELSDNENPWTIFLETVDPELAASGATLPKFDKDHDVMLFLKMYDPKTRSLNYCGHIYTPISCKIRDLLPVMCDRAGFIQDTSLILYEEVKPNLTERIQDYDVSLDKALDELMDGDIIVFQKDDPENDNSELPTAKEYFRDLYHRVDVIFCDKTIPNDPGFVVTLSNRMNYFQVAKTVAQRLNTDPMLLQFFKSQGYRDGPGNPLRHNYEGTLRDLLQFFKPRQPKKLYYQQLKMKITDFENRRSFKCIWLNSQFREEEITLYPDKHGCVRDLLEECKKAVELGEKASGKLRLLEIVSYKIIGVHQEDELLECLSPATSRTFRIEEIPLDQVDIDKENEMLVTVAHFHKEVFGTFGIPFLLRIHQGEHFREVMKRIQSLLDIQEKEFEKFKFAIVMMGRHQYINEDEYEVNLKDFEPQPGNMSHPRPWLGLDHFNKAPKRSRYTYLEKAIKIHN

| SMILES | IC50 [1] | half-life at 2 µM [2] | half-life at 1 µM [3] | Plasma t1/2, min [2] |
| --- | --- | --- | --- | --- |
| CN(C)C1CCN(c2ccc3c(=O)n(CC4(O)CCN(C(=O)[C@H](CCCNC(=O)c5ccc6c(Cl)cc(C7CC7)nc6c5)Cc5ccccc5)CC4)cnc3c2)CC1 [Compound 123] | < 20 nM | 178 min | 24.3 min | – |
| CN1CCC(OCCOc2ccc3c(=O)n(CC4(O)CCN(C(=O)[C@H](CCCNC(=O)c5ccc6c(Cl)cc(C7CC7)nc6c5)Cc5ccccc5)CC4)cnc3c2)CC1 [Compound 132] | 20 to 100 nM | – | 6.96 min | ∞* |
